# Measured values reported in patent US8871793B2, “Metaxalone cocrystals” (Nuformix Limited, priority 2009, dated 2014).
# Like-named read-outs stand apart in the source and are kept apart here.
# What was measured:
# [1] = Pharmacokinetic study, oral capsule administration under fasted conditions in beagle dogs; type: in vivo; settings: mean, male beagle dogs, equivalent metaxalone dosage of 21 mg/kg; for Tmax / AUC: plasma; for Cmax: plasma metaxalone by LC-MS/MS; for AUC: linear trapezoidal rule
# Description: The study was designed to compare the pharmacokinetic profiles of the 1:0.5 metaxalone fumaric acid (prepared as described in Example 2.7) and 1:0.5 metaxalone succinic acid cocrystals (prepared as described in Example 4.7) with that of the crystalline metaxalone following oral administration under fasted conditions at 21 mg/kg dose level in beagle dogs. A crossover study was carried out using 5 male beagle dogs with a washout period of 5 days between each treatment. Prior to dosing, the dogs were fasted overnight, weighed and then this weight was used to load capsules with each test compound at an equivalent metaxalone dosage of 21 mg/kg. The capsules were orally administered to the dogs followed by about 10 mL of water. Food was provided 4 hours post-dose to all animals.
# Blood samples were collected at pre-dose, 10, 20 and 30 minutes, and 1, 2, 3, 4, 6, 8, 12 and 24 hour post-dose (12 time points) following oral dose administration. Approximately 0.8 ml of whole blood was withdrawn from the cephalic vein and placed in labelled tubes containing K2 EDTA as anticoagulant ([…] of 200 mM K2 EDTA solution per mL of blood). Plasma was separated by centrifuging the whole blood at about 2500 g for 10 minutes at 4° C. Separated plasma was stored below −70° C. until analysis.
# A fit for purpose LC-MS/MS method was used for the determination of the metaxalone concentrations in the plasma samples. Pharmacokinetic parameters from individual samples were calculated using the non-compartmental analysis tool of the WinNonlin® software (version 5.2). The area under the plasma concentration curve (AUC) was calculated using the linear trapezoidal rule. Peak plasma concentration (Cmax) and the time taken to reach the peak plasma concentration (Tmax) were the observed values.
# [2] = presence of food at the time of drug administration compared to fasted conditions; cited from earlier work
# [3] = cited from earlier work
Tmax [1],Cmax [1],AUC [1],"Cmax ([1]; dog, read-out: Cmax)","AUC ([1]; dog, read-out: AUC)","Tmax ([1]; dog, read-out: Tmax)",Structure (SMILES),Increase of AUC(inf) by food [2],Increase of AUC(last) by food [2],Increase of C(max) by food [2],Solubility in 96% ethanol ([3]; 96% ethanol),Solubility in chloroform ([3]; chloroform),Solubility in methanol ([3]; methanol),Solubility in water ([3]; water)
1.1 h,3635.39 ng/mL,5202.44 ng·h/mL,,,,Cc1cc(C)cc(OCC2CNC(=O)O2)c1.Cc1cc(C)cc(OCC2CNC(=O)O2)c1.O=C(O)C=CC(=O)O (stereo not shown) [1:0.5 Metaxalone Fumaric Acid Cocrystal],,,,,,,
,,,1910 ng/mL,2380 ng·h/mL,0.9 h,"Cc1cc(C)cc(OCC2CNC(=O)O2)c1 (stereo not shown) [Metaxalone, 5-[(3,5-dimethylphenoxy)methyl]-2-oxazolidinone]",115.4%,123.5%,177.5%,soluble,freely soluble,soluble,practically insoluble
1.8 h,2629.8 ng/mL,4134.85 ng·h/mL,,,,Cc1cc(C)cc(OCC2CNC(=O)O2)c1.Cc1cc(C)cc(OCC2CNC(=O)O2)c1.O=C(O)CCC(=O)O (stereo not shown) [1:0.5 Metaxalone Succinic Acid Cocrystal],,,,,,,
